Earlier results, collected in patent US20110064813A1, “USE OF SALSALATE WITH OR WITHOUT CAFFEINE AND WITH OR WITHOUT OMEGA 3, AND OTHER PHARMACEUTICAL COMPOUNDS IN A DISTINCTIVELY UNIQUE NANO-PARTICULATE CAPSULE AND TABLET” (priority 2009, published 2011).

Experiments:
[1] = system: patients with rheumatoid arthritis; conditions: compared with diclofenac
[2] = system: patients presenting with Type 2 Diabetes (T2D); conditions: tablet forms of salsalate; T2D patients and obese patients
[3] = acidic conditions
[4] = administered orally
[5] = compared with aspirin and other NSAIDS
pro-thrombin time = conditions: unlike Aspirin

## O=C(Oc1ccccc1C(=O)O)c1ccccc1O [salsalate, 2-(2-Hydroxybenzoyl)oxybenzoic acid]
[1]
  clinical efficacy: equal to diclofenac
[2]
  lowering of glucose levels: experienced efficacy in the lowering of glucose levels
HIV-infected patients; HIV patients
  salsalate induced liver dysfunction: a significant number of HIV patients experienced salsalate induced liver dysfunction
HIV-infected patients; HIV-infected patients
  endothelial function: improved endothelial function
[3]
  solubility: nearly insoluble
[4]
  time to full benefit (plasma salicylate steady state): 3 to 4 days
[5]
  fecal gastrointestinal blood loss: less fecal gastrointestinal blood loss than aspirin
pro-thrombin time
  inhibition of pro-thrombin time: does not inhibit
